Laboratory results published in patent US12290519B2, “Anti-inflammatory coupling compound drug, and preparation method therefor and use thereof” (COVAL BIOPHARMA (SHANGHAI) CO., LTD., priority 2021, dated 2025).

experiment: Hydrolysis rate / drug release rate of the compounds (release of JAK inhibitor, HPLC); assay type: physicochemical; settings: % release of JAK inhibitor from sample in acetonitrile/water=7/3 (v/v), 37° C. constant temperature shaker, sampled days 1-4, HPLC
Experimental: Analysis Method for Hydrolysis Rate of Compounds of the Present Invention
1. Preparation of Standard Working Curve Solution
(§1) About 10 mg of JAK inhibitors (tofacitinib and baricitinib) reference substances were weighed into a 25 mL volumetric flask, acetonitrile/water=7/3 (v/v) was added to dissolve and dilute to the marked volume, serving as a stock solution. The stock solution was diluted with a suitable dilution factor to obtain linear solutions of each concentration: 0.0002 mg/mL, 0.0004 mg/mL, 0.004 mg/mL, 0.04 mg/mL, and 0.08 mg/mL.
as §1, with “(Oclacitinib, Ruxolitinib, Delgocitinib,” for “(tofacitinib”, “Upadacitinib)” for “baricitinib)”
2. Preparation of Sample Solution
About 5 mg of the sample (the compound prepared in the present invention) was weighed into a 20 mL volumetric flask, acetonitrile/water=7/3 (v/v) was added to dissolve and dilute to the marked volume, serving as a stock solution. An appropriate amount of HPLC was loaded as the 0-day sample. The test solution was sealed with a sealing film and placed in a 37° C. constant temperature shaker. The test samples were taken at the same time on days 1, 2, 3, and 4 respectively. the release amount of JAK inhibitor in the sample was calculated according to the sample weight and JAK inhibitor standard curve.
3. Calculation Formula % Release of JAK Inhibitor r=100%×((AJAK Inhibitor−b)/a)/((W/20×M2/M1) wherein • AJAK inhibitor is the peak area of JAK inhibitor in the sample chromatogram • b is the intercept of the standard curve M1 is the molecular weight of the sample a is the slope of the standard curve
W is the sample weight (mg) M2 is the molecular weight of the JAK inhibitor
4. Chromatographic Conditions

Point of comparison: `CCC(C(=O)OCn1ccc2c(N(C)[C@H]3CN(C(=O)CC#N)CC[C@H]3C)ncnc21)c1ccc(N2Cc3ccccc3C2=O)cc1` (stereo partly drawn) [Ex. 65, (4-(((3R, 4R)-1-(2-cyanoacetyl)-4-methylpiperidin-3-yl) (methyl)amino)-7H-pyrrolo [2,3-d]pyrimidin-7-yl) methyl 2-(4-(1-oxoisoindol-2-yl)) phenyl) butanoate], “Release Rate (%/day)” value 0.01 %/day. Against it:
- CC(C(=O)n1ccc2c(N(C)[C@H]3CN(C(=O)CC#N)CC[C@H]3C)ncnc21)c1cccc(C(=O)c2ccccc2)c1 (stereo partly drawn) [Ex. 7, 3-((3R,4R)-3-((7-(2-(3-benzoylphenyl)propanoyl)-7H-pyrrolo[2,3-d]pyrimidin-4-yl) (methyl)amino)-4-methylpiperidin-1-yl)-3-oxopropanenitrile] — higher, 15.65 %/day
- CCc1cccc2c3c([nH]c12)C(CC)(CC(=O)n1ccc2c(N(C)[C@H]4CN(C(=O)CC#N)CC[C@H]4C)ncnc21)OCC3 (stereo partly drawn) [Ex. 14, 3-((3R,4R)-3-((7-(2-(1,8-diethyl-1,3,4,9-tetrahydropyrano[3,4-b]indol-1-yl)acetyl)-7H-pyrrolo[2,3-d]pyrimidin-4-yl) (methyl)amino)-4-methylpiperidin-1-yl)-3-oxopropanenitrile] — higher, 0.98 %/day
- CC(C(=O)n1ccc2c(-c3cnn([C@H](CC#N)C4CCCC4)c3)ncnc21)c1ccc(-c2ccccc2)c(F)c1 (stereo partly drawn) [Ex. 33, (3R)-3-cyclopentyl-3-(4-(7-(2-(2-fluoro-[1, 1′-biphenyl]-4-yl)propanoyl)-7H-pyrrolo [2,3-d]pyrimidin-4-yl)-1H-pyrazol-1-yl) propanenitrile] — higher, 5.01 %/day
- Cc1cnc(NC(=O)C2=C(OCn3ccc4c(N(C)[C@H]5CN(C(=O)CC#N)CC[C@H]5C)ncnc43)c3ccccc3S(=O)(=O)N2C)s1 [Ex. 142, 4-((4-(((3R, 4R)-1-(2-cyanoacetyl)-4-methylpiperidin-3-yl) (methyl)amino)-7H-pyrrolo [2,3-d]pyrimidin-7-yl)methoxy)-2-methyl-N-(5-methylthiazol-2-yl)-2H-benzo [e] [1, 2] thiazine-3-carboxamide 1,1-dioxide] — higher, 0.05 %/day
- CCC(C(=O)n1ccc2c(N3CC[C@]4(C3)[C@@H](C)CN4C(=O)CC#N)ncnc21)c1ccc(N2Cc3ccccc3C2=O)cc1 (stereo partly drawn) [Ex. 143, 3-((3S, 4R)-3-methyl-6-(7-(2-(4-(1-oxoisoindolin-2-yl)phenyl)butanoyl)-7H-pyrrolo [2,3-d]pyrimidin-4-yl)-1,6-diazaspiro [3.4]octan-1-yl)-3-oxopropanenitrile] — higher, 4.29 %/day
- C[C@@H]1CCN(C(=O)CC#N)C[C@@H]1N(C)c1ncnc2c1ccn2C(=O)[C@@H](NC(=O)OC(C)(C)C)c1ccccc1 [Ex. 16, Tert-butyl ((S)-2-(4-(((3R, 4R)-1-(2-cyanoacetyl)-4-methylpiperidin-3-yl) (methyl)amino)-7H-pyrrolo[2,3-d]pyrimidin-7-yl)-2-oxo-1-phenylethyl)carbamate] — higher, 39.31 %/day
- CCS(=O)(=O)N1CC(CC#N)(n2cc(-c3ncnc4c3ccn4C(=O)Cc3c(C)n(C(=O)c4ccc(Cl)cc4)c4ccc(OC)cc34)cn2)C1 [Ex. 23, 2-(3-(4-(7-(2-(1-(4-chlorobenzoyl)-5-methoxy-2-methyl-1H-indol-3-yl)acetyl)-7H-pyrrolo [2,3-d]pyrimidin-4-yl)-1H-pyrazol-1-yl)-1-(ethylsulfonyl)azetidin-3-yl) acetonitrile] — higher, 7.63 %/day
- CC(=O)Oc1ccccc1C(=O)OCn1ccc2c(N(C)[C@H]3CN(C(=O)CC#N)CC[C@H]3C)ncnc21 [Ex. 56, (4-(((3R, 4R)-1-(2-cyanoacetyl)-4-methylpiperidin-3-yl) (methyl)amino)-7H-pyrrolo [2,3-d]pyrimidin-7-yl) methyl 2-acetoxybenzoate] — higher, 0.07 %/day
- CCS(=O)(=O)N1CC(CC#N)(n2cc(-c3ncnc4c3ccn4COC(=O)Cc3ccc(NC(C)=O)cc3)cn2)C1 [Ex. 84, Methyl (4-(1-(3-(cyanomethyl)-1-(ethylsulfonyl)azetidin-3-yl)-1H-pyrazol-4-yl)-7H-pyrrolo [2,3-d]pyrimidin-7-yl) 2-(4-acetamidophenyl) acetate] — higher, 0.06 %/day
- CCS(=O)(=O)N1CC(CC#N)(n2cc(-c3ncnc4c3ccn4C(=O)C(C)c3ccc(CC4CCCC4=O)cc3)cn2)C1 (stereo not shown) [Ex. 22] — higher, 2.75 %/day
- CCC(C(=O)n1ccc2c(N(C)C3CCC(CS(=O)(=O)NC)CC3)ncnc21)c1ccc(N2Cc3ccccc3C2=O)cc1 (stereo not drawn) [Ex. 35, N-methyl-1-((trans)-4-(methyl (7-(2-(4-(1-oxoisoindolin-2-yl)phenyl)butanoyl)-7H-pyrrolo [2,3-d]pyrimidin-4-yl)amino)cyclohexyl) methanesulfonamide] — higher, 4.57 %/day
- CC(C(=O)n1ccc2c(-c3cnn([C@H](CC#N)C4CCCC4)c3)ncnc21)c1cccc(C(=O)c2ccccc2)c1 (stereo partly drawn) [Ex. 32, (3R)-3-(4-(7-(2-(3-benzoylphenyl)propanoyl)-7H-pyrrolo [2,3-d]pyrimidin-4-yl)-1H-pyrazol-1-yl)-3-cyclopentylpropanenitrile] — higher, 7.12 %/day
- CNS(=O)(=O)C[C@H]1CC[C@H](N(C)c2ncnc3c2ccn3C(=O)[C@@H](NC(=O)OC(C)(C)C)c2ccccc2)CC1 [Ex. 46, tert-butyl ((S)-2-(4-(methyl ((trans)-4-((N-methylsulfamoyl)methyl)cyclohexyl)amino)-7H-pyrrolo [2,3-d]pyrimidin-7-yl)-2-oxo-1-phenylethyl) carbamate] — higher, 25.52 %/day
- CC(C(=O)OCn1ccc2c(-c3cnn([C@H](CC#N)C4CCCC4)c3)ncnc21)c1cccc(C(=O)c2ccccc2)c1 (stereo partly drawn) [Ex. 99, (4-(1-((R)-2-cyano-1-cyclopentylethyl)-1H-pyrazol-4-yl)-7H-pyrrolo [2,3-d]pyrimidin-7-yl) methyl 2-(3-benzoylphenyl) propanoate] — higher, 0.21 %/day
- CC(C(=O)n1ccc2c(N(C)[C@H]3CN(C(=O)CC#N)CC[C@H]3C)ncnc21)c1ccc(CC2CCCC2=O)cc1 (stereo partly drawn) [Ex. 11, 3-((3R,4R)-4-methyl-3-(methyl (7-(2-(4-((2-oxocyclopentyl)methyl)phenyl)propanoyl)-7H-pyrrolo[2,3-d]pyrimidin-4-yl)amino)piperidin-1-yl)-3-oxopropanenitrile] — higher, 9.17 %/day
- CCS(=O)(=O)N1CC(CC#N)(n2cc(-c3ncnc4c3ccn4COC(=O)[C@@H](NC(=O)OC(C)(C)C)c3ccccc3)cn2)C1 [Ex. 74, Methyl (4-(1-(3-(cyanomethyl)-1-(ethylsulfonyl)azetidin-3-yl)-1H-pyrazol-4-yl)-7H-pyrrolo [2,3-d]pyrimidin-7-yl) (S)-2-((tert-butoxycarbonyl)amino)-2-phenylacetate] — higher, 0.44 %/day
- CC[C@@H]1CN(C(=O)NCC(F)(F)F)C[C@@H]1c1cnc2cnc3c(ccn3C(=O)C(C)c3ccc(CC(C)C)cc3)n12 (stereo partly drawn) [Ex. 124, (3S, 4R)-3-ethyl-4-(3-(2-(4-isobutylphenyl)propanoyl)-3H-imidazo [1,2-a]pyrrolo [2,3-e]pyrazin-8-yl)-N-(2,2,2-trifluoroethyl) pyrrolidine-1-carboxamide] — higher, 2.75 %/day
- COc1ccc2c(c1)c(CC(=O)OCn1ccc3c(-c4cnn([C@H](CC#N)C5CCCC5)c4)ncnc31)c(C)n2C(=O)c1ccc(Cl)cc1 [Ex. 104, (R)-2-(4-(1-(2-cyano-1-cyclopentylethyl)-1H-pyrazol-4-yl)-7H-pyrrolo [2,3-d]pyrimidin-7-yl) methyl 2-(1-(4-chlorobenzoyl)-5-methoxy-2-methyl-1H-indol-3-yl) acetate] — higher, 0.45 %/day
- CC[C@@H]1CN(C(=O)NCC(F)(F)F)C[C@@H]1c1cnc2cnc3c(ccn3C(=O)c3ccccc3Nc3cccc(Cl)c3C)n12 [Ex. 130, (3R, 4S)-3-(3-(2-((3-chloro-2-methylphenyl)amino)benzoyl)-3H-imidazo [1,2-a]pyrrolo [2,3-e]pyrazin-8-yl)-4-ethyl-N-(2,2,2-trifluoroethyl) pyrrolidine-1-carboxamide] — higher, 11.67 %/day

With `CCS(=O)(=O)N1CC(CC#N)(n2cc(-c3ncnc4c3ccn4COC(=O)C(C)c3ccc(CC4CCCC4=O)cc3)cn2)C1` (stereo not shown) [Ex. 72, Methyl (4-(1-(3-(cyanomethyl)-1-(ethylsulfonyl)azetidin-3-yl)-1H-pyrazol-4-yl)-7H1-pyrrolo [2,3-d]pyrimidin-7-yl) 2-(4-((2-oxocyclopentyl)methyl)phenyl) propanoate] the “Release Rate (%/day)” value was <0.01 %/day.
In the case of `CC(C)Cc1ccc([C@H](C)C(=O)OCn2ccc3c(-c4cnn([C@H](CC#N)C5CCCC5)c4)ncnc32)cc1` [Ex. 86, (4-(1-((R)-2-cyano-1-cyclopentylethyl)-1H-pyrazol-4-yl)-7H-pyrrolo [2,3-d]pyrimidin-7-yl) methyl (S)-2-(4-isobutylphenyl) propanoate], the “Release Rate (%/day)” value was <0.01 %/day.
